Counter-ions that a name gives are not always drawn.
molecular target: T1, human V1a receptor (Homo sapiens, UniProt P37288); test: human V1a receptor binding (3H-Vasopressin SPA, membranes of transfected HEK293 cells); details: not given
T1 construct: expressed in transfected cells; host or cells: HEK293 cells, transiently transfected; membranes prepared
Description: The human V1a receptor was cloned by RT-PCR from total human liver RNA. The coding sequence was subcloned in an expression vector after sequencing to confirm the identity of the amplified sequence. […] Cell membranes were prepared from HEK293 cells transiently transfected with the expression vector and grown in 20 liter fermenters with the following protocol.
50 g of cells are resuspended in 30 ml freshly prepared ice cold Lysis buffer (50 mM HEPES, 1 mM EDTA, 10 mM MgCl2 adjusted to pH=7.4+ complete cocktail of protease inhibitor (Roche Diagnostics)). Homogenized with Polytron for 1 min and sonicated on ice for 2×2 minutes at 80% intensity (Vibracell sonicator). The preparation is centrifuged 20 min at 500 g at 4° C., the pellet is discarded and the supernatant centrifuged 1 hour at 43,000 g at 4° C. (19'000 rpm). The pellet is resuspended in 12.5 ml Lysis buffer+12.5 ml Sucrose 20% and homogenized using a Polytron for 1-2 min. The protein concentration is determined by the Bradford method, and aliquots are stored at −80° C. until use. For binding studies 60 mg Yttrium silicate SPA beads (Amersham) are mixed with an aliquot of membrane in binding buffer (50 mM Tris, 120 mM NaCl, 5 mM KCl, 2 mM CaCl2, 10 mM MgCl2) for 15 minutes with mixing. 50 ul of bead/membrane mixture is then added to each well of a 96 well plate, followed by 50 ul of 4 nM 3H-Vasopressin (American Radiolabeled Chemicals). For total binding measurement 100 ul of binding buffer are added to the respective wells, for non-specific binding 100 ul of […] cold vasopressin and for compound testing 100 ul of a serial dilution of each compound in 2% DMSO. The plate is incubated 1 h at room temperature, centrifuged 1 min at 1000 g and counted on a Packard Top-Count. Non-specific binding counts are subtracted from each well, and data is normalized to the maximum specific binding set at 100%. To calculate an IC 50 the curve is fitted using a non-linear regression model (XLfit) and the Ki is calculated using the Cheng-Prussoff equation.

T1 sequence (P37288 whole entry): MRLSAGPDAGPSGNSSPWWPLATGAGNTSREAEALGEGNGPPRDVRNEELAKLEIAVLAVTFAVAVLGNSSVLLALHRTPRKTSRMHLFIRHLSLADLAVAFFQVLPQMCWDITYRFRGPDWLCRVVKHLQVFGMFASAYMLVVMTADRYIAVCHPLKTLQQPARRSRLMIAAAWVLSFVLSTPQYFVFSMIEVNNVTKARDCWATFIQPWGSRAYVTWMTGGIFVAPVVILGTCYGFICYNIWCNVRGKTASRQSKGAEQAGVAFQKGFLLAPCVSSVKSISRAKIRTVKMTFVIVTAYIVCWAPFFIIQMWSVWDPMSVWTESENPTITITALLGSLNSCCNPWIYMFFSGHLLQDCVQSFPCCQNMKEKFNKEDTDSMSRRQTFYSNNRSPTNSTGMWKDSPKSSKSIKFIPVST

| Structure (SMILES) | Ki |
| --- | --- |
| CNC(=O)Cn1cc(C(=O)N2CCN(c3nccc4sccc34)CC2)c2ccc(Cl)cc21 [Example 224, 2-[6-Chloro-3-(4-thieno[3,2-c]pyridin-4-yl-piperazine-1-carbonyl)-indol-1-yl]-N-methyl-acetamide] | 27 nM |
| COc1cccc(OC)c1C1CCN(C(=O)c2cn(Cc3cnccn3)c3cc(Cl)ccc23)CC1 [Example 50] | 4 nM |
| CN(C)CCn1cc(C(=O)N2CCC(c3cccc4c3OCC4)CC2)c2ccc(Cl)cc21 [Example 87, [6-Chloro-1-(2-dimethylamino-ethyl)-1H-indol-3-yl]-[4-(2,3-dihydro-benzofuran-7-yl)-piperidin-1-yl]-methanone] | 4 nM |
| CN(C)C(=O)Cn1cc(C(=O)N2CCN(c3ccc(F)cc3F)CC2)c2ccc(Cl)cc21 [Example 205, 2-{6-Chloro-3-[4-(2,4-difluoro-phenyl)-piperazine-1-carbonyl]-indol-1-yl}-N,N-dimethyl-acetamide] | 10 nM |
| COc1ccccc1C1CCN(C(=O)c2cn(Cc3cc(F)cc(F)c3)c3cc(Cl)ccc23)CC1 [Example 56, [6-Chloro-1-(3,5-difluoro-benzyl)-1H-indol-3-yl]-[4-(2-methoxy-phenyl)-piperidin-1-yl]-methanone] | 2 nM |
| CN1CCN(C(=O)Cn2cc(C(=O)N3CCC(c4cccc5c4OCC5)CC3)c3ccc(Cl)cc32)CC1 [Example 71, 2-{6-Chloro-3-[4-(2,3-dihydro-benzofuran-7-yl)-piperidine-1-carbonyl]-indol-1-yl}-1-(4-methyl-piperazin-1-yl)-ethanone] | 5 nM |

same assay, conditions: displacement of 4 nM 3H-Vasopressin, HEK293 cell membranes, Ki by Cheng-Prussoff from IC50; read-out: Ki

| Ki | Structure (SMILES) |
| --- | --- |
| 3 nM | COc1cccc(OC)c1C1CCN(C(=O)c2cn(CC(=O)c3ccccn3)c3cc(Cl)ccc23)CC1 [Example 44, 2-{6-Chloro-3-[4-(2,6-dimethoxy-phenyl)-piperidine-1-carbonyl]-indol-1-yl}-1-pyridin-2-yl-ethanone] |
| 12 nM | CNCCn1cc(C(=O)N2CCC(c3cccc4c3OCC4)CC2)c2ccc(Cl)cc21 [Example 107, [6-Chloro-1-(2-methylamino-ethyl)-1H-indol-3-yl]-[4-(2,3-dihydro-benzofuran-7-yl)-piperidin-1-yl]-methanone] |
| 14 nM | CCOc1ccccc1N1CCN(C(=O)c2cn(CC(=O)N(C)C)c3cc(Cl)ccc23)CC1 [Example 152, 2-{6-Chloro-3-[4-(2-ethoxy-phenyl)-piperazine-1-carbonyl]-indol-1-yl}-N,N-dimethyl-acetamide] |
| 12 nM | O=C(Cn1cc(C(=O)N2CCC(c3ccccc3F)CC2)c2ccc(Cl)cc21)N1CCNCC1 [Example 118, 2-{6-Chloro-3-[4-(2-fluoro-phenyl)-piperidine-1-carbonyl]-indol-1-yl}-1-piperazin-1-yl-ethanone hydrochloride] |
| 2 nM | COc1ccccc1C1CCN(C(=O)c2cn(CC(=O)OC(C)(C)C)c3cc(Cl)ccc23)CC1 [Example 59, {6-Chloro-3-[4-(2-methoxy-phenyl)-piperidine-1-carbonyl]-indol-1-yl}-acetic acid tert-butyl ester] |
| 2 nM | COc1cccc(OC)c1C1CCN(C(=O)c2cn(CC(=O)N3CCN(C)CC3)c3cc(Cl)ccc23)CC1 [Example 55, 2-{6-Chloro-3-[4-(2,6-dimethoxy-phenyl)-piperidine-1-carbonyl]-indol-1-yl}-1-(4-methyl-piperazin-1-yl)-ethanone] |
| 8 nM | COc1cccc(OC)c1C1CCN(C(=O)c2c[nH]c3cc(Cl)ccc23)CC1 [Example 40, (6-Chloro-1H-indol-3-yl)-[4-(2,6-dimethoxy-phenyl)-piperidin-1-yl]-methanone] |
| 32 nM | NC(=O)Cn1cc(C(=O)N2CCN(c3ccccc3F)CC2)c2ccc(Cl)cc21 [Example 175, 2-{6-Chloro-3-[4-(2-fluoro-phenyl)-piperazine-1-carbonyl]-indol-1-yl}-acetamide] |
| 7 nM | CNC(=O)Cn1cc(C(=O)N2CCC(c3ccccc3F)CC2)c2ccc(Cl)cc21 [Example 111, 2-{6-Chloro-3-[4-(2-fluoro-phenyl)-piperidine-1-carbonyl]-indol-1-yl}-N-methyl-acetamide] |
| 7 nM | CN1CCN(C(=O)Cn2cc(C(=O)N3CCC(c4ccccc4OC(F)(F)F)CC3)c3ccc(Cl)cc32)CC1 [Example 88, 2-{6-Chloro-3-[4-(2-trifluoromethoxy-phenyl)-piperidine-1-carbonyl]-indol-1-yl}-1-(4-methyl-piperazin-1-yl)-ethanone] |
| 5 nM | CC(C)Oc1ccccc1C1CCN(C(=O)c2cn(CC(=O)N3CCN(C)CC3)c3cc(Cl)ccc23)CC1 [Example 67, 2-{6-Chloro-3-[4-(2-isopropoxy-phenyl)-piperidine-1-carbonyl]-indol-1-yl}-1-(4-methyl-piperazin-1-yl)-ethanone] |
| 7 nM | COc1cccc(OC)c1C1CCN(C(=O)c2cn(Cc3cccnc3)c3cc(Cl)ccc23)CC1 [Example 46, (6-Chloro-1-pyridin-3-ylmethyl-1H-indol-3-yl)-[4-(2,6-dimethoxy-phenyl)-piperidin-1-yl]-methanone] |
| 12 nM | CNC(=O)Cn1cc(C(=O)N2CCN(c3ncccc3I)CC2)c2ccc(Cl)cc21 [Example 225, 2-{6-Chloro-3-[4-(3-iodo-pyridin-2-yl)-piperazine-1-carbonyl]-indol-1-yl}-N-methyl-acetamide] |
| 4 nM | CC(C)Oc1ccccc1C1CCN(C(=O)c2cn(CC(=O)N(C)C)c3cc(Cl)ccc23)CC1 [Example 66, 2-{6-Chloro-3-[4-(2-isopropoxy-phenyl)-piperidine-1-carbonyl]-indol-1-yl}-N,N-dimethyl-acetamide] |
| 11 nM | COc1cccc(OC)c1C1CCN(C(=O)c2cn(CC(=O)N(C)C)c3ccccc23)CC1 [Example 62, 2-{3-[4-(2,6-Dimethoxy-phenyl)-piperidine-1-carbonyl]-indol-1-yl}-N,N-dimethyl-acetamide] |
| 2 nM | CNC(=O)Cn1cc(C(=O)N2CCC(c3c(OC)cccc3OC)CC2)c2ccc(Cl)cc21 [Example 82, 2-{6-Chloro-3-[4-(2,6-dimethoxy-phenyl)-piperidine-1-carbonyl]-indol-1-yl}-N-methyl-acetamide] |
| 8 nM | CNC(=O)Cn1cc(C(=O)N2CCC(c3ccccc3OC(F)(F)F)CC2)c2ccc(Cl)cc21 [Example 90, 2-{6-Chloro-3-[4-(2-trifluoromethoxy-phenyl)-piperidine-1-carbonyl]-indol-1-yl}-N-methyl-acetamide] |
| 7 nM | COc1cccc(OC)c1C1CCN(C(=O)c2cn(Cc3ccncc3)c3cc(Cl)ccc23)CC1 [Example 45, (6-Chloro-1-pyridin-4-ylmethyl-1H-indol-3-yl)-[4-(2,6-dimethoxy-phenyl)-piperidin-1-yl]-methanone] |
| 26 nM | CNC(=O)Cn1cc(C(=O)N2CCN(c3ncccc3C(F)(F)F)CC2)c2ccc(Cl)cc21 [Example 196, 2-{6-Chloro-3-[4-(3-trifluoromethyl-pyridin-2-yl)-piperazine-1-carbonyl]-indol-1-yl}-N-methyl-acetamide] |
| 2 nM | COc1ccccc1C1CCN(C(=O)c2cn(CC(=O)N(C)C)c3cc(Cl)ccc23)CC1 [Example 57, 2-{6-Chloro-3-[4-(2-methoxy-phenyl)-piperidine-1-carbonyl]-indol-1-yl}-N,N-dimethyl-acetamide] |
| 8 nM | CNC(=O)Cn1cc(C(=O)N2CCC(c3cccc4c3OCC4)CC2)c2ccc(Cl)cc21 [Example 76, 2-{6-Chloro-3-[4-(2,3-dihydro-benzofuran-7-yl)-piperidine-1-carbonyl]-indol-1-yl}-N-methyl-acetamide] |
| 8 nM | COc1ccccc1C1CCN(C(=O)c2cn(CCN(C)C)c3cc(Cl)ccc23)CC1 [Example 108, [6-Chloro-1-(2-dimethylamino-ethyl)-1H-indol-3-yl]-[4-(2-methoxy-phenyl)-piperidin-1-yl]-methanone] |
| 6 nM | CN1CCN(C(=O)Cn2cc(C(=O)N3CCC(c4ccccc4C(F)(F)F)CC3)c3ccc(Cl)cc32)CC1 [Example 97, 2-{6-Chloro-3-[4-(2-trifluoromethyl-phenyl)-piperidine-1-carbonyl]-indol-1-yl}-1-(4-methyl-piperazin-1-yl)-ethanone] |
| 11 nM | COc1cccc(OC)c1C1CCN(C(=O)c2cn(CC(=O)NCCN)c3cc(Cl)ccc23)CC1 [Example 84, N-(2-Amino-ethyl)-2-{6-chloro-3-[4-(2,6-dimethoxy-phenyl)-piperidine-1-carbonyl]-indol-1-yl}-acetamide] |
| 3 nM | CN(C)C(=O)Cn1cc(C(=O)N2CCN(c3ccccc3F)CC2)c2ccc(Cl)cc21 [Example 174, 2-{6-Chloro-3-[4-(2-fluoro-phenyl)-piperazine-1-carbonyl]-indol-1-yl}-N,N-dimethyl-acetamide] |

Reference: patent US7781436B2 (Hoffmann-La Roche Inc., priority 2005, dated 2010)
